Measured values published in patent US9586904B2, “Preparation of (−)-huperzine A” (priority 2013, dated 2017).

Test: Solubility of huperzine A-chiral acid salts and of (±)-huperzine A in solvents
Type: physicochemical
Source text: This invention first prepared a series of huperzine A-chiral acid salts.

## (±)-huperzine A
Most solvents
  solubility in most solvents: rather poorly soluble
Various single solvents, during salt formation
  solubility in various single solvents: very poor
